From publication PMC4121097, “Glioma-Associated Antigen HEATR1 Induces Functional Cytotoxic T Lymphocytes in Patients with Glioma” (Journal of Immunology Research, 2014)

Legend:
[1] = test system: PBMCs from healthy donors and patients with glioma; experiment: IFN-γ ELISpot assay with PBMCs; format: cell-based, human; settings: PBMCs from five HLA-A∗02+ patients with GBM and one control patient with benign tumor, Figure 4
Method: A human IFN-γ ELISpot kit (552138; BD Pharmingen, CA) was used to quantify the CTL response in PBMCs. Several 96-well plates were coated with purified anti-human IFN-γ monoclonal antibodies at the concentration of 5 μg/mL at 100 μL/well and incubated at 4°C overnight and then washed once with 200 μL/well of RPMI-1640 containing 10% FBS and 1% penicillin-streptomycin-L-glutamine (R10) and blocked with 200 μL/well R10 for 2 h at room temperature. PBMCs were then washed twice with R10 and resuspended in R10 complete culture medium. After being counted, the cells were then adjusted to the concentration of 1 × 10^6 cells/mL and plated onto a 96-well ELISpot plate at 50 μL/well (5 × 10^4 cells/well) with the addition of 50 μL of the peptide. The final concentration of each peptide was 5 μg/mL. The 96-well ELISpot plates were incubated for about 20 h at 37°C in 5% CO2. After incubation, the ELISpot plates were developed according to the kit instructions. Finally, the plates were air-dried and the resulting spots were counted with ChampSpot IV Bioreader (Beijing SAGE Creation Science, Beijing, China). Peptide-specific IFN-γ ELISpot responses were considered positive only when the number of spots was twofold greater than the control peptide stimulation and there were >50 spots per 1 × 10^6 PBMCs.

HLA-A∗02:01 on T2 cells = biological target: T1, HLA-A∗02:01 on T2 cells (Homo sapiens, UniProt P04439, D140Y/D185E/D98H/E176V/E277Q/G131W/G231S/I119V/I121R/I166T/I218V/L300P/L318F/N151K/N90K/P208A/P217A/Q86G/Q94H/R138H/R169H/T345S); experiment: T2-cell-peptide binding test (peptide-induced HLA-A∗02:01 expression, flow cytometry); settings: peptide 20 μg/mL; for affinity for binding to HLA-A∗02 (in words): 4 h, Figure 2(b); for percentage of MFI increase of HLA-A∗02:01: 4 h in SFM, BB7.2 anti-HLA-A∗02:01 mAb, mean ± SE of three independent experiments, SEM
T1 construct: measuring peptide-induced expression of HLA-A∗02:01 on T2 cells using flow cytometry; host or cells: T2 cells (human, TAP1/TAP2-deficient)
Method: The binding activity of selected peptides to the HLA-A∗02 molecule was determined semiquantitatively by measuring peptide-induced expression of HLA-A∗02:01 on T2 cells using flow cytometry. The T2 cells were incubated for 4 h with the candidate peptides, respectively, at a concentration of 20 μg/mL in SFM. After being washed with phosphate buffered saline-fetal calf serum (PBS-FCS), the T2 cells were incubated with supernatant containing murine mAb against HLA-A∗02:01 derived from BB7.2 cells for 30 min at 4°C. The T2 cells were washed twice with PBS-FCS and stained with 5 μg/mL diluted fluorescein isothiocyanate-conjugated immunoglobulin G which reacts to mouse immunoglobulin for 30 min. The cells were then rinsed three times with PBS-FCS and analyzed using a FACSAria flow cytometer. The percent mean fluorescence index (% MFI) increase of HLA-A∗02:01 molecules was calculated as follows: % MFI increase = [(MFI with peptide − MFI without peptide)]/(MFI without peptide) × 100 [27].

Sequence	affinity for binding to HLA-A∗02 (in words) (HLA-A∗02:01 on T2 cells)	percentage of MFI increase of HLA-A∗02:01 (HLA-A∗02:01 on T2 cells) [%]	ELISpot response to individual peptide (in words) [1]
LLPESIPFL [HEATR1_2102–2110]	–	285.2 ± 49.2	–
FLFDTQHFI [HEATR1_2003–2011]	lower affinity	–	–

Continued, in another order:

affinity for binding to HLA-A∗02 (in words) (HLA-A∗02:01 on T2 cells)	percentage of MFI increase of HLA-A∗02:01 (HLA-A∗02:01 on T2 cells) [%]	Sequence	ELISpot response to individual peptide (in words) [1]
highest affinity	308.5 ± 4.8	KMVEDLISV [HEATR1_682–690]	higher than the others
–	287.2 ± 7.7	KLLRMLFDL [HEATR1_1126–1134]	higher than the others
lowest affinity	–	FLWILLILL [HEATR1_1411–1419]	–
–	228.7 ± 5.4	LMLDRGIPV [HEATR1_757–765]	highest ELISpot response
